Reference: US9173882B2, “Polycyclic heteroaryl substituted triazoles useful as Axl inhibitors” (Rigel Pharmaceuticals, Inc., priority 2008, dated 2015)

Molecular target: T1, Axl (Homo sapiens, UniProt P30530)
T1 construct: endogenous in cells; host or cells: HeLa cells
T1 sequence (P30530 26-894): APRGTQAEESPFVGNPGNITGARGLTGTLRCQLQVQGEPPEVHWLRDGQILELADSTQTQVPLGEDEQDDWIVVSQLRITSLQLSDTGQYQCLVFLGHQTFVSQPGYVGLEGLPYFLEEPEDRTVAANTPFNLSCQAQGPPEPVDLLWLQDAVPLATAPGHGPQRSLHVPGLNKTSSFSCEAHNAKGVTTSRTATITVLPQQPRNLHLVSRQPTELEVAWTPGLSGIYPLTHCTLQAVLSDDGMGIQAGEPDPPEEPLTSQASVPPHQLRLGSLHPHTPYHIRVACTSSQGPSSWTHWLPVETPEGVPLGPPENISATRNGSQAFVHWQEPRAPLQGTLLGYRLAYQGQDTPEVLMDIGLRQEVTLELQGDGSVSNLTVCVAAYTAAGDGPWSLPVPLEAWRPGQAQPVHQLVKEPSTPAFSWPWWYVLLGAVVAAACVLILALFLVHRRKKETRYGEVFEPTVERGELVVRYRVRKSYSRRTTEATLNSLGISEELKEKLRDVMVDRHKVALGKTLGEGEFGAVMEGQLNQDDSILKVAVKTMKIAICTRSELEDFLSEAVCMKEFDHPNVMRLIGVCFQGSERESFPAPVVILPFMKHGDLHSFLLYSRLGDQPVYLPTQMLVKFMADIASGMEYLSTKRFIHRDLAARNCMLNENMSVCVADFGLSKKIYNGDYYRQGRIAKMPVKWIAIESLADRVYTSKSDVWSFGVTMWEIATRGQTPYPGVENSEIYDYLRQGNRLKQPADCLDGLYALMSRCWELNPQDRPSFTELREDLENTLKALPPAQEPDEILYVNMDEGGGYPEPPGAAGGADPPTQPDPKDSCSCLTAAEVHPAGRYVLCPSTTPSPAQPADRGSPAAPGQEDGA
Experiment: Phospho-Akt in-cell Western assay
Type: cell-based
Settings: Hela cells, stimulated by Axl-antibody cross-linking, phospho-Akt chemiluminescence; Table 1, formula (Ia)
Outline: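 HeLa cells on poly-L-lysine, starved 24 h in 0.5% FCS with 500 ng/mL Axl/Fc, pre-treated with compound 1 hr at 37° C, then stimulated 5 min by cross-linked anti-Axl antibody clusters. Fixed cells probed for phospho-Akt by in-cell Western with HRP chemiluminescence, read within 10 min.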

SMILES | IC50 [nM]
Nc1nc(Nc2ccc3c(c2)CCC(N2CCC(F)(F)CC2)CC3)nn1-c1cc2c(nn1)-c1ccccc1CCC2 (stereo not shown) [Compound 3, 1-(6,7-dihydro-5H-benzo[6,7]cyclohepta[1,2-c]pyridazin-3-yl)-N^3-(7-(4,4-difluoropiperidin-1-yl)-6,7,8,9-tetrahydro-5H-benzo[7]annulene-2-yl)-1H-1,2,4-triazole-3,5-diamine] | 1000 to 10000
CCC(CC)N[C@H]1CCc2ccc(Nc3nc(N)n(-c4cc5c(nn4)-c4ccccc4CCC5)n3)cc2CC1 [Compound 33, 1-(6,7-dihydro-5H-benzo[6,7]cyclohepta[1,2-c]pyridazin-3-yl)-N^3-((7S)-7-(3-pentylamino)-6,7,8,9-tetrahydro-5H-benzo[7]annulene-2-yl)-1H-1,2,4-triazole-3,5-diamine] | < 1000
Nc1nc(Nc2ccc3c(c2)CC[C@@H](N)CC3)nn1-c1cc2c(nn1)-c1ccccc1CCC2 [Compound 15, 1-(6,7-dihydro-5H-benzo[6,7]cyclohepta[1,2-c]pyridazin-3-yl)-N^3-((7S)-7-amino-6,7,8,9-tetrahydro-5H-benzo[7]annulene-2-yl)-1H-1,2,4-triazole-3,5-diamine] | 1000 to 10000
CC=CCN(CCCC)[C@H]1CCc2ccc(Nc3nc(N)n(-c4cc5c(nn4)-c4ccccc4CCC5)n3)cc2CC1 [Compound 43, 1-(6,7-dihydro-5H-benzo[6,7]cyclohepta[1,2-c]pyridazin-3-yl)-N^3-((7S)-7-(butyl(but-2-enyl)amino)-6,7,8,9-tetrahydro-5H-benzo[7]annulene-2-yl)-1H-1,2,4-triazole-3,5-diamine] | < 1000

Next, values leading:

IC50 [nM] | SMILES
1000 to 10000 | CN(C)[C@H]1CCc2ccc(Nc3nc(N)n(-c4cc5c(nn4)-c4cccnc4CCC5)n3)cc2CC1 [Compound 47, 1-(6,7-dihydro-5H-pyrido[2′,3′:6,7]cyclohepta[1,2-c]pyridazin-3-yl)-N^3-((7S)-7-(dimethylamino)-6,7,8,9-tetrahydro-5H-benzo[7]annulene-2-yl)-1H-1,2,4-triazole-3,5-diamine]
1000 to 10000 | CC(C)CCN(CCC(C)C)[C@H]1CCc2ccc(Nc3nc(N)n(-c4cc5c(nn4)-c4cccnc4CCC5)n3)cc2CC1 [Compound 51, 1-(6,7-dihydro-5H-pyrido[2′,3′:6,7]cyclohepta[1,2-c]pyridazin-3-yl)-N^3-((7S)-7-(di(3-methylbutyl)amino)-6,7,8,9-tetrahydro-5H-benzo[7]annulene-2-yl)-1H-1,2,4-triazole-3,5-diamine]
< 1000 | Nc1nc(Nc2ccc3c(c2)CC[C@@H](NC2CCCCC2)CC3)nn1-c1cc2c(nn1)-c1cccnc1CCC2 [Compound 53, 1-(6,7-dihydro-5H-pyrido[2′,3′:6,7]cyclohepta[1,2-c]pyridazin-3-yl)-N^3-((7S)-7-(cyclohexylamino)-6,7,8,9-tetrahydro-5H-benzo[7]annulene-2-yl)-1H-1,2,4-triazole-3,5-diamine]
